What was measured:
[1] = Encapsulation efficiency (RiboGreen assay) of mRNA-LNPs; assay type: physicochemical; conditions: mRNA-LNP formulated with tested lipid; RiboGreen with/without Triton X-100
Procedure: 1. Preparation of sample stock solutions: In the top row of the 96-well plate (Row A in the plate), add 297 µL of TE buffer pH 7.4 to a single well for each sample plus a single well for a PBS blank using a multichannel pipette. TE buffer preparation:
2. Add 3 µL of sample (at 0.5mg/ml) to these wells for a final volume of 300 µL. Add 3 µL of PBS to the blank well. Pipette to mix. This is your stock solution for each sample. The final RNA concentration of these stock solutions should be approximately 4-7 µg/mL. 3. mRNA-LNP sample setup: • a. Add 50 µL of TE buffer pH 7.5 to the two wells directly below each sample (Rows B and C in the plate). • b. Add 50 µL of sample stock solution from Row A into the wells in Rows B and C (this assay is run in duplicate. All liquid handling should be done using a multichannel pipette). • c. Add 50 µL of Triton buffer to the wells in Rows D and E (in the plate) below each sample. • d. Add 50 µL of sample stock solution from Row A into the wells in Rows D and E. 4. RiboGreen RNA standard curve setup: Dilute the RNA standard to produce an RNA stock at a final concentration of 20 µg/mL in TE buffer pH 7.4. The final volume should be 150 µL. Set up a standard curve (in duplicate) as using the RNA stock (20 µg/mL siRNA), TE buffer pH 7.5, and Triton X-100 buffer according the Table 2 below. Triton X-100 buffer preparation:
5. Once samples and standard curve are plated, incubate the plate at 37°C for 10 min to lyse mRNA-LNP in the presence of Triton X-100 buffer. 6. Meanwhile, prepare RiboGreen Solution: Sum the total number of sample wells and standard curve wells. Add three to this number, and multiply the total by 100. This is the total volume, in µL, of RiboGreen Solution needed for this assay. In a 15 mL RNAse-free Falcon tube, dilute the RiboGreen Reagent 1:100 into TE buffer pH 7.5 to the total volume calculated. 7. Addition of RiboGreen Solution and sample readings: Remove a 96-well plate from 37°C incubator; let it cool to room temperature as RiboGreen binding is somewhat temperature dependent. Add 100 µL of RiboGreen Solution to each well. Pop any air bubbles with a needle. Read using fluorescent plate reader (excitation = 480, emission = 525). 8. Sample analysis: Use the data generated by the RiboGreen standard curve to calculate the concentration of mRNA.

HeLa = test: Transfection efficiency with Luciferase-mRNA (SecNLuc), Nano-Glo assay; assay type: cell-based; conditions: 24 hours, luminescence (Nano-Glo); for Transfection 10 ng mRNA: 10 ng SecNLuc mRNA/well; for Transfection 50 ng mRNA: 50 ng SecNLuc mRNA/well; for Transfection 100 ng mRNA: 100 ng SecNLuc mRNA/well
Procedure: • 1. Prepare mRNA solution by adding 100 ng mRNA (SecNLuc, #P009024, RiboPro) to 5 µl Opti-MEM • multiply by number of wells, include different concentrations and add 10% extra • a standard set-up we use is 100 ng - 50 ng - 10 ng mRNA/well in triplicate, which would need […] mRNA (includes 10% extra)
• 2. (If applicable) Prepare different concentrations in Opti-MEM (for instance 100/50/10 ng). • 3. Add 10 µl to each well and mix carefully by pipetting. • 4. Mix by swirling the plate horizontally at modest speed. Reverse in direction 3 times. • 5. Incubate for 24 hours (incubator).
This protocol is applied to measure luciferase activity for secreted NanoLuc and is based on the protocol by Promega (Nano-Glo® Luciferase Assay System #N1110-1150). The protocol is designed for a 384-wells plate, but volumes can be changed accordingly for other plates.
• 1. Plate cells (HeLa) in 96-well plate, grow until 80% confluent and transfect with SecNanoLuc mRNA and incubate for the desired period (24h). • 2. After incubation, the translated protein is accumulated in the medium. Transfer medium to a new plate or tubes . • 3. Transfer 12 µl of each sample to a black-walled, clear-bottom 384-well plate Black-walled plates are important to prevent shine-through of luminescence from other wells; alternatively, multiple wells between samples can be left empty. • 4. Set-up plate reader • 5. Prepare the desired amount of Nano-Gio® Luciferase Assay Reagent by combining one volume of Nano-Glo® Luciferase Assay Substrate with 50 volumes of Nano-Glo® Luciferase Assay Buffer: • a. composition: 100 mM MES pH 6; 1 mM EDTA; 0.5% […]; 150 mM KCl; 1 mM DTT; 35 mM Thiourea; • b. briefly spin tubes containing substrate in a microcentrifuge before use. • 6. Add and mix (by pipetting) 12 µl Nano-Glo® Luciferase Assay Reagent per well • Wait approximately 3 minutes before measuring luminescence. The luminescence intensity will decay gradually, with a signal half-life of approximately 120 minutes at room temperature. • 7. Measure luminescence in plate reader using standard protocol luciferase (this includes mixing sample in plate reader)

| SMILES | EE [1] [%] | Transfection 10 ng mRNA (HeLa) | Transfection 50 ng mRNA (HeLa) | Transfection 100 ng mRNA (HeLa) |
| --- | --- | --- | --- | --- |
| CCCCCCCCCCSC(CCCC)C(=O)OCCCCCCN(CCCCCCOC(=O)C(CCCC)SCCCCCCCCCC)CCC1CCCN1C (centres unmarked) [Example 5, ((2-(1-methylpyrrolidin-2-yl)ethyl)azanediyl)bis(hexane-6,1-diyl) bis(2-(decylthio)hexanoate)] | 96 | 4,17E+05 | 3,34E+06 | 6,52E+06 |
| CCCCCCCCCCSC(CCCC)C(=O)OCCCCCCCCN(CCCCO)CCCCCCCCOC(=O)C(CCCC)SCCCCCCCCCC (centres unmarked) [Example 3, ((4-hydroxybutyl)azanediyl)bis(octane-8,1-diyl) bis(2-(decylthio)hexanoate)] | 77 | 9,69E+05 | 1,02E+07 | 1,37E+07 |
| CCCCCCCCCCSC(CCCCCCCC)C(=O)OCCCCCCN(CCCCO)CCCCCCOC(=O)C(CCCCCCCC)SCCCCCCCCCC (centres unmarked) [Example 7, ((4-hydroxybutyl)azanediyl)bis(hexane-6,1-diyl) bis(2-(decylthio)decanoate)] | 92 | 1,62E+06 | 1,47E+07 | 2,01E+07 |
| CCCCCCCCCCCCCCSCC(=O)OCCCCCCN(CCCCO)CCCCCCOC(=O)CSCCCCCCCCCCCCCC [Example 10, ((4-hydroxybutyl)azanediyl)bis(hexane-6,1-diyl) bis(2-(tetradecylthio)acetate)] | 83 | 2,92E+05 | 3,57E+06 | 1,10E+07 |
| CCCCCCCCC(CCCCCC)C(=O)OCCCCCCN(CCCCO)CCCCCCOC(=O)C(CCCCCC)CCCCCCCC (centres unmarked) [ALC-0315 ref., reference compound] | 94 | 3,21E+06 | 1.47E+07 | 1,04E+07 |

The next lines start with results.

| EE [1] [%] | SMILES | Transfection 10 ng mRNA (HeLa) | Transfection 50 ng mRNA (HeLa) | Transfection 100 ng mRNA (HeLa) |
| --- | --- | --- | --- | --- |
| 90 | CCCCCCCCC(SCCCCCCC)C(=O)OCCCCCCN(CCCCO)CCCCCCOC(=O)C(CCCCCCCC)SCCCCCCC (centres unmarked) [Example 6, ((4-hydroxybutyl)azanediyl)bis(hexane-6,1-diyl) bis(2-(heptylthio)decanoate)] | 3,47E+06 | 1,83E+07 | 2,52E+07 |
| 53 | CCCCCCCCCCSC(CCCC)C(=O)OCCCCCCN(CCCCO)CCCCCCOC(=O)C(CCCC)SCCCCCCCCCC (centres unmarked) [Example 1, ((4-hydroxybutyl)azanediyl)bis(hexane-6,1-diyl) bis(2-(decylthio)hexanoate)] | 3,81E+06 | 1,83E+07 | 1,69E+07 |
| 85 | CCCCCCCCCCSC(CCCC)C(=O)OCCCCCCN(CCO)CCCCCCOC(=O)C(CCCC)SCCCCCCCCCC (centres unmarked) [Example 4, ((2-hydroxyethyl)azanediyl)bis(hexane-6,1-diyl) bis(2-(decylthio)hexanoate)] | 2,53E+06 | 1,23E+07 | 8,17E+06 |
| 55 | CCCCCCCCC(SCCCCC)C(=O)OCCCCCCN(CCCCO)CCCCCCOC(=O)C(CCCCCCCC)SCCCCC (centres unmarked) [Example 2, ((4-hydroxybutyl)azanediyl)bis(hexane-6,1-diyl) bis(2-(pentylthio)decanoate)] | 2,40E+06 | 1,60E+07 | 1,39E+07 |
| 67 | CCCCCCCSC(CCCCCC)C(=O)OCCCCCCN(CCCCO)CCCCCCOC(=O)C(CCCCCC)SCCCCCCC (centres unmarked) [Example 9, ((4-hydroxybutyl)azanediyl)bis(hexane-6,1-diyl) bis(2-(heptylthio)octanoate)] | 2,79E+06 | 1,36E+07 | 1,43E+07 |
| 86 | CCCCCCCCCCSC(CCCCCC)C(=O)OCCCCCCN(CCCCO)CCCCCCOC(=O)C(CCCCCC)SCCCCCCCCCC (centres unmarked) [Example 8, ((4-hydroxybutyl)azanediyl)bis(hexane-6,1-diyl) bis(2-(decylthio)octanoate)] | 2,80E+06 | 1,36E+07 | 1,11E+07 |

Reference: patent publication EP4559898A1, “NOVEL IONIZABLE CATIONIC LIPIDS CONTAINING THIOETHER LINKAGE” (AldexChem Kft., priority 2023, dated 2025)
